Drawing on publication doi:10.1101/2020.07.08.194076v1 (biorxiv, 2020), this text covers Km for 2 compounds.

This experiment has as its system SlG3. Kind of experiment: GGPPS enzyme assay. The format is biochemical, Solanum lycopersicum.

As to `C=C(C)CCOP(=O)(O)OP(=O)(O)O` [IPP], the Km (co-substrate 100 µM DMAPP) stood at 45.9 ± 4.86 µM. In the case of `CC(C)=CCOP(=O)(O)OP(=O)(O)O` [DMAPP], the Km (co-substrate 100 µM IPP) was 45.8 ± 6.81 µM.
